Experimental data: patent US5731285A, “Tachiquinine antagonist tricyclic compounds, preparation of same and pharmaceutical compositions containing such compounds” (A. Menatini Industrie Farmaceutiche, priority 1992, dated 1998)
Positions of bridges follow the written chain, without caps; N, C: chain ends. Non-standard residues stand in square brackets, D forms with d. Residues, ends and D or L forms follow the SMILES beside them. Dap = NC[C@H](N)C(=O)O

Molecular target: T1, neurokinin A receptor (receptor NK-2) (Oryctolagus cuniculus, UniProt P79218)
T1 construct: The said preparation consisted of isolated rabbit pulmonary artery; from tissue; host or cells: isolated rabbit pulmonary artery
T1 sequence (P79218 1-384): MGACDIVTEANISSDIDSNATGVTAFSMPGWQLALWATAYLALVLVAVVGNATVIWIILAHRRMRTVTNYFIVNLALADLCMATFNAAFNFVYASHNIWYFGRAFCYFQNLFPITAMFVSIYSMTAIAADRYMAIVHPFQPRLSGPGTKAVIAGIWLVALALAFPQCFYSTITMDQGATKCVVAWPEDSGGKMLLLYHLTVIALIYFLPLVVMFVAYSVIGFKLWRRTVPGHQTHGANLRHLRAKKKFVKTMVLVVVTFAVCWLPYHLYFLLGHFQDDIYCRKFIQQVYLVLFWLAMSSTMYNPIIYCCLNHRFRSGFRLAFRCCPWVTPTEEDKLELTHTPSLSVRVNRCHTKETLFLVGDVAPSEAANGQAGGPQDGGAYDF
Assay: inhibition of NKA-induced contraction in isolated rabbit pulmonary artery
Format: cell-based
Conditions: compound, NKA 3 nM
Method: The capacity of the products described in the present invention to interact with the neurokinin A receptor as agonists or antagonists was assessed using a preparation characterized by the fact that the biological response produced by tachykinins and correlated peptides was exclusively determined by the neurokinin A receptor (receptor NK-2). The said preparation consisted of isolated rabbit pulmonary artery affected by a dose-dependentcontraction brought about by tachykinins (Rovero et al., Neuropeptides, 13, 263-270, 1989). The determination of the peptide activity in the test preparation was based on the use of an NKA concentration (3 nM) causing a response equal to 45% of max. response. The peptides considered herein were added to the preparation in growing concentrations. Their activity was assessed as inhibition of response to NKA.

CSCC[C@@H]1NC(=O)[C@H](CC(C)C)NC(=O)[C@@H]2CNC(=O)C[C@H](NC1=O)C(=O)N[C@@H](Cc1c[nH]c3ccccc13)C(=O)N[C@@H](Cc1ccccc1)C(=O)N2 [Compound 1] (cyclo(DWF[Dap]LM); lactam 1-4)
inhibition of response to neurokinins A: 100%
